“And” between values parts separate entries of the source, which are not always exact repeats. Equal entries are not always repeated.

The test system of the assay is antibodies to pathogenic Newcastle disease virus. Format: binding, chicken.

Consider 3 (RRQRRF) [compound 3], for which the “number of positive chickens/number of tested chickens” value is 1/5(0.81) and 0/5(0.70) and 4/4(2.45).

The values above are taken from patent US8114408B2 (priority 2007, dated 2012).
